According to patent US20240425518A1, “N-MACROCYCLIC AMIDE COMPOUNDS, PREPARATION METHODS THEREOF AND APPLICATIONS THEREOF AS MEDICAMENTS” (Chengdu FANXI Biopharma Co., Ltd., priority 2023, published 2024):

Columns and labels:
KDR (h) = biological target: T1, KDR (h) (Homo sapiens, UniProt P35968); assay: Radioisotope labeling kinase assay (Eurofins), KDR; assay type: biochemical
T1 construct: purchased Eurofins
Experimental: (§1) An activity to a human recombinant protein kinase of a series of compounds was determined by a radioisotope labeling method, which was provided by Eurofins Company. A compound to be detected was mixed with a corresponding protein kinase buffer (20 mM propyl sulfonate (MOPS, […].), 1 mM EDTA, 0.10 β-mercaptoethanol, 0.010 Brij-35, […], and 1 mg/mL BSA), the mixture was added into a reaction system (100 μM reaction substrate […], 8 mM MOPS with a pH value of 7.0, 10 mM MgAcetate, 0.2 mM EDTA, and a certain concentration of γ-^33P-ATP). After adding an MgATP composite solution, the reaction was started at room temperature for 40 minutes, and the reaction was terminated by adding 5 μl of […] solution. Then, 10 μl of reaction solution was dropwise added onto a filter and washed with 75 mM phosphoric acid solution for three times, 5 minutes each time, then washed with methanol once again, and dried and subjected to scintillation counting.

Flt3 (D835Y) (h) = biological target: T2, Flt3 (D835Y) (h) (Homo sapiens, UniProt P36888, D835Y); assay: Radioisotope labeling kinase assay (Eurofins), Flt3 (D835Y); assay type: biochemical; conditions: for activity at 1 µM: 1 μM compound, read-out: Inhibitory activity per unit concentration/Activity % Flt3 (D835Y) (h)
T2 construct: purchased Eurofins
T2 sequence (P36888 27-993 D835Y): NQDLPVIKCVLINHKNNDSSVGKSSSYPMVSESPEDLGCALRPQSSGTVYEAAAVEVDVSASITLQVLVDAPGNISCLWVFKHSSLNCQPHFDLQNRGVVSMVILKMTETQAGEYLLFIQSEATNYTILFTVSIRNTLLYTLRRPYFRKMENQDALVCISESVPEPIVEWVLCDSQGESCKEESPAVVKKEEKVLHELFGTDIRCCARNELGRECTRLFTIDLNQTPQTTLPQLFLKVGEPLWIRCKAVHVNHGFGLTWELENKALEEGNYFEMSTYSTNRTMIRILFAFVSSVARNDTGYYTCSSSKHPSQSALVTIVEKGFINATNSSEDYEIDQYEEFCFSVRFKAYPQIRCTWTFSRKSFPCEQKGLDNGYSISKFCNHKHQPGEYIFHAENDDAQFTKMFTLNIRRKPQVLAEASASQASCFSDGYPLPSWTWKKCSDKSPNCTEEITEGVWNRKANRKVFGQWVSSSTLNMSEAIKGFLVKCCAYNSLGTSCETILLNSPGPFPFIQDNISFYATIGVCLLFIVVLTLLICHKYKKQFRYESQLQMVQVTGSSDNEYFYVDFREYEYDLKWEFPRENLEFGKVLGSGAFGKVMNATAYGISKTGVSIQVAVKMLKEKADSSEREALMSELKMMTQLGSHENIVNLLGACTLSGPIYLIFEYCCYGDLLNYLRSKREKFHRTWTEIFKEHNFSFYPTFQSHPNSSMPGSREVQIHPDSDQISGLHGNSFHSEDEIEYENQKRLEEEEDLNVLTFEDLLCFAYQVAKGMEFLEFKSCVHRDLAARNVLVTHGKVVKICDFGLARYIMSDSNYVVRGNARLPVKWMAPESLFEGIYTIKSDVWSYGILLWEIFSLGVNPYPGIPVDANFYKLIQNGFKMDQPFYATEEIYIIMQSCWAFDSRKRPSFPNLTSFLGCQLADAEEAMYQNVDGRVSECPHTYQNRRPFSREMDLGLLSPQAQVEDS
Experimental: as §1

Ab1 (h) = biological target: T3, Ab1 (h) (Homo sapiens, UniProt P00519); assay: Radioisotope labeling kinase assay (Eurofins), Ab1; assay type: biochemical; conditions: for activity at 1 µM: 1 μM compound, read-out: Inhibitory activity per unit concentration/Activity % Ab1 (h)
T3 construct: purchased Eurofins
Experimental: as §1

Ret (h) = biological target: T4, Ret (h) (Homo sapiens, UniProt P07949); assay: Radioisotope labeling kinase assay (Eurofins), Ret; assay type: biochemical
T4 construct: purchased Eurofins
Experimental: as §1

EGFR (T790M, L858R) (h) = biological target: T5, EGFR (T790M, L858R) (h) (Homo sapiens, UniProt P00533, L858R/T790M); assay: Radioisotope labeling kinase assay (Eurofins), EGFR (T790M, L858R); assay type: biochemical
T5 construct: purchased Eurofins
Experimental: as §1

[1] = system: Karpas-299 Human anaplastic large cell lymphoma cells; assay: MTT cell proliferation inhibition, Karpas-299; assay type: cell-based; conditions: Karpas-299, 72 hours
Experimental: (§2) Human cancer cells were purchased from ATCC. The cells were cultured in a culture medium according to the work instruction of ATCC. A dose-response curve was drawn by XL-fitting to determine an IC50 value of a compound. […] Cell proliferation inhibition could be detected by a MTT method (3-(4,5-Dimethylthiazol-2-yl)-2,5-diphenyltetrazolium bromide, and MTT; and 3-(4,5-dimethyl thiazole-2)-2,5-diphenyltertazolium bromide, and thiazolyl blue).
(§3) The cells were cultured in a culture dish first, and the cells in a logarithmic growth phase were inoculated into a 96-well plate (3,000 to 5,000 adherent cells/well, 10,000 to 30,000 suspended cells/well) according to a specific number, with 100 microliters per well, and then cultured in an incubator of 5% CO2 and 37° C. […] An absorbance of a general control group should be a normal value between 0.8 and 1.2. After obtaining absorbance data, a change curve of an inhibition rate was fitted by GraphPad Prism6.03 software and an IC50 value was calculated.
(§4) Calculation of drug inhibition rate: relative cell proliferation inhibition rate=[(control group A570−experimental group A570)/control group […], wherein A570 represented the absorbance at 570 nm.

[2] = system: MGC-803 Human gastric cancer cells; assay: MTT cell proliferation inhibition, MGC-803; assay type: cell-based; conditions: MGC-803, 72 hours
Experimental: as §2, §3, §4

[3] = system: RPMI 8226 Human myeloma cells; assay: MTT cell proliferation inhibition, RPMI 8226; assay type: cell-based; conditions: RPMI 8226, 72 hours
Experimental: as §2, §3, §4

MM1S Human myeloma cells = assay: MTT cell proliferation inhibition, MM1S; assay type: cell-based; conditions: MM1.S, 72 hours
Experimental: as §2, §3, §4

[4] = system: Aspc-1 Human pancreatic cancer cells; assay: MTT cell proliferation inhibition, Aspc-1; assay type: cell-based; conditions: ASPC1, Aspc-1, 72 hours
Experimental: as §2, §3, §4

[5] = system: K562 Human acute myelogenous leukemia; assay: MTT cell proliferation inhibition, K562; assay type: cell-based; conditions: K562, 72 hours
Experimental: as §2, §3, §4

U266 Human myeloma cells = assay: MTT cell proliferation inhibition, U266; assay type: cell-based; conditions: U-266, U266, 72 hours
Experimental: as §2, §3, §4

[6] = system: HGC-27 Human gastric cancer cells; assay: MTT cell proliferation inhibition, HGC-27; assay type: cell-based; conditions: HGC-27, 72 hours
Experimental: as §2, §3, §4

T3 sequence (P00519 whole entry): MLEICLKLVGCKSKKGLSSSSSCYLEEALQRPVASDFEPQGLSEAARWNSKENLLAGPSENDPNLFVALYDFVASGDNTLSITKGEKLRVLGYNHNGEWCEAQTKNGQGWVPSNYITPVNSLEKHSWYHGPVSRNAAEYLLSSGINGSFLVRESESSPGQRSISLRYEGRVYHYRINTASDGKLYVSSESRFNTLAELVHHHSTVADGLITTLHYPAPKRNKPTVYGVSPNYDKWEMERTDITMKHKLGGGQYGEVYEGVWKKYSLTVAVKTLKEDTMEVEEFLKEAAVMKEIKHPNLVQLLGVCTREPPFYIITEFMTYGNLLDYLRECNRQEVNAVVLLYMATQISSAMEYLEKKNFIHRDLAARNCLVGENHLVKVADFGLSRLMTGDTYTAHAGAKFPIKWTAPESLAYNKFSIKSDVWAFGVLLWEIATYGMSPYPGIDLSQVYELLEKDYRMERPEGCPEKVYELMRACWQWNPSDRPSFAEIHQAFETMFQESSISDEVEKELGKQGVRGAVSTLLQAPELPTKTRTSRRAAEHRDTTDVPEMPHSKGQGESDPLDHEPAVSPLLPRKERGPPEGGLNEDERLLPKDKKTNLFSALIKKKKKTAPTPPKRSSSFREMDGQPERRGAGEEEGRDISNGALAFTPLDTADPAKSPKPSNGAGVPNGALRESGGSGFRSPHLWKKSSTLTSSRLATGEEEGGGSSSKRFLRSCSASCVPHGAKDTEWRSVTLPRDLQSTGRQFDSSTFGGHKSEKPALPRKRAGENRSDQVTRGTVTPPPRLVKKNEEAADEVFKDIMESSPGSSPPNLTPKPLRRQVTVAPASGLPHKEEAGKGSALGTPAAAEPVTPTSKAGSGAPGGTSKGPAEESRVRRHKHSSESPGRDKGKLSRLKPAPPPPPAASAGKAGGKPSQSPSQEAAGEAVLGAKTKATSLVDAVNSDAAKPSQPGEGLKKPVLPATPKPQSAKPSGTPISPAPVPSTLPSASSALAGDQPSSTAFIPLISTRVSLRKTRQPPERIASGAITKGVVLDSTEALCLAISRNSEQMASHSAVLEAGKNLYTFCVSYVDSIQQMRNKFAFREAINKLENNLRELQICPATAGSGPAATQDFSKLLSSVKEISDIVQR
T5 sequence (P00533 25-1210 T790M/L858R): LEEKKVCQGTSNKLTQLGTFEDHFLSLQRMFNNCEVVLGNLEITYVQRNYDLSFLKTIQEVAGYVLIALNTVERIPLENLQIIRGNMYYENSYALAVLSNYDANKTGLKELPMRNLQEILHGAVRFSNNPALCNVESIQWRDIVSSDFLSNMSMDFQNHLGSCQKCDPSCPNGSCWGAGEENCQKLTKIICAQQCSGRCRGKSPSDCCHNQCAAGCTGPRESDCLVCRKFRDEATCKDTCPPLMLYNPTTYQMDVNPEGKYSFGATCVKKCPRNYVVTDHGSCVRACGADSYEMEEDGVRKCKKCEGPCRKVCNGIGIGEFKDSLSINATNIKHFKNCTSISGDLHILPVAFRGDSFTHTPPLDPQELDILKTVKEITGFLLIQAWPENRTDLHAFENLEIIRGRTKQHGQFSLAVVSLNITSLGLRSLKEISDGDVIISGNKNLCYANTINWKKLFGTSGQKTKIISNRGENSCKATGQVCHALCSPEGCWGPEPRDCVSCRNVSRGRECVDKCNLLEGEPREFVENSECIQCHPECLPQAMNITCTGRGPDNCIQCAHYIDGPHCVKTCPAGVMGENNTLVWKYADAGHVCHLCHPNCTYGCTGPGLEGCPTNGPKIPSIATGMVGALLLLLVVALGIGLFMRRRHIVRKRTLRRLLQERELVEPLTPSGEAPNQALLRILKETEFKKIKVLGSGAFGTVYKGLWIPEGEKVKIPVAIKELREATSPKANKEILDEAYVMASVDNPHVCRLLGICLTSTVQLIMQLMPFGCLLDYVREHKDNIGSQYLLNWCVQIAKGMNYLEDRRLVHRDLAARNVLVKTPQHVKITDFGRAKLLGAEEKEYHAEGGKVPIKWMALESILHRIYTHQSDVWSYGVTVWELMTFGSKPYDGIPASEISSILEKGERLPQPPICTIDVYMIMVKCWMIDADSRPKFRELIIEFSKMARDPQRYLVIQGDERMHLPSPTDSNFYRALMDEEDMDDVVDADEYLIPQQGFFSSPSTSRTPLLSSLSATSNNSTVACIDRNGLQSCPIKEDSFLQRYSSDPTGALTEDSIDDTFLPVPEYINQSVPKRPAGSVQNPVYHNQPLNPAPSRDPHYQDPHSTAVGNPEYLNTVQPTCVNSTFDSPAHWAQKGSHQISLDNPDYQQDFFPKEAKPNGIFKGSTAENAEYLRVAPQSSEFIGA
T1 sequence (P35968 20-1356): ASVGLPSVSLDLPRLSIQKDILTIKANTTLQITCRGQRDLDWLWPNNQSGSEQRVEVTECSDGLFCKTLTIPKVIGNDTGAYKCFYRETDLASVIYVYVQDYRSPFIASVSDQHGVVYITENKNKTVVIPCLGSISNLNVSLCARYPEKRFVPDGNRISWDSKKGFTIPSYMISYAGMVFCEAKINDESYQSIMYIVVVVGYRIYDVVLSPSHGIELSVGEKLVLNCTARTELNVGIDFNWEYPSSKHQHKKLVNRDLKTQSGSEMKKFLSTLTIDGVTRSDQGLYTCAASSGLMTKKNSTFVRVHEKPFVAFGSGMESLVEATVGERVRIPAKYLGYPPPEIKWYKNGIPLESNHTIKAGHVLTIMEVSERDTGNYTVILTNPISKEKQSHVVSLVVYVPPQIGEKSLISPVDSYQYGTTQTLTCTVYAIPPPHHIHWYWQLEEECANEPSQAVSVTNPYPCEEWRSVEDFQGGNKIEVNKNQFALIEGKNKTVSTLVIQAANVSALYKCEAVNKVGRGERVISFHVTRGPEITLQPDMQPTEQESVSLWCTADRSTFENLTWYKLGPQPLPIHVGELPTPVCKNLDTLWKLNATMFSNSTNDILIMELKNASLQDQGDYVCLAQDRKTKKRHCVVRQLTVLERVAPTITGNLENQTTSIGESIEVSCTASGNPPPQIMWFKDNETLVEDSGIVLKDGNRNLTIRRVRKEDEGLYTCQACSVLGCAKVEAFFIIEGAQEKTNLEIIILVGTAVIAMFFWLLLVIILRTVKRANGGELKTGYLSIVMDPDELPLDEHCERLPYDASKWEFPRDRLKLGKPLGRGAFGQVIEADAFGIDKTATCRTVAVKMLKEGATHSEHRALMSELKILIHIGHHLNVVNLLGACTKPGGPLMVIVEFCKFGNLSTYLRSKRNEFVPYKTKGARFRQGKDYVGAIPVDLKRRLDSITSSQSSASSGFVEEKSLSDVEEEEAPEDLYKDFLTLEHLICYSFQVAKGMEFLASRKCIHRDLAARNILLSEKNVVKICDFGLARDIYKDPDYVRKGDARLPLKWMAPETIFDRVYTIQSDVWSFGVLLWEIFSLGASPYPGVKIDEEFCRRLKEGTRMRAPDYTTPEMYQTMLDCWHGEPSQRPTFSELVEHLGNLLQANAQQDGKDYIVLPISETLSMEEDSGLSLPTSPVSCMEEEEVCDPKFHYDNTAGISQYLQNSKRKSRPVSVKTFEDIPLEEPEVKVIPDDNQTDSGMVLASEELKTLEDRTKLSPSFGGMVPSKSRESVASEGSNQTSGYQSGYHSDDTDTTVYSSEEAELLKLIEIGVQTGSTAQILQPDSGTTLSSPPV
T4 sequence (P07949 29-1114): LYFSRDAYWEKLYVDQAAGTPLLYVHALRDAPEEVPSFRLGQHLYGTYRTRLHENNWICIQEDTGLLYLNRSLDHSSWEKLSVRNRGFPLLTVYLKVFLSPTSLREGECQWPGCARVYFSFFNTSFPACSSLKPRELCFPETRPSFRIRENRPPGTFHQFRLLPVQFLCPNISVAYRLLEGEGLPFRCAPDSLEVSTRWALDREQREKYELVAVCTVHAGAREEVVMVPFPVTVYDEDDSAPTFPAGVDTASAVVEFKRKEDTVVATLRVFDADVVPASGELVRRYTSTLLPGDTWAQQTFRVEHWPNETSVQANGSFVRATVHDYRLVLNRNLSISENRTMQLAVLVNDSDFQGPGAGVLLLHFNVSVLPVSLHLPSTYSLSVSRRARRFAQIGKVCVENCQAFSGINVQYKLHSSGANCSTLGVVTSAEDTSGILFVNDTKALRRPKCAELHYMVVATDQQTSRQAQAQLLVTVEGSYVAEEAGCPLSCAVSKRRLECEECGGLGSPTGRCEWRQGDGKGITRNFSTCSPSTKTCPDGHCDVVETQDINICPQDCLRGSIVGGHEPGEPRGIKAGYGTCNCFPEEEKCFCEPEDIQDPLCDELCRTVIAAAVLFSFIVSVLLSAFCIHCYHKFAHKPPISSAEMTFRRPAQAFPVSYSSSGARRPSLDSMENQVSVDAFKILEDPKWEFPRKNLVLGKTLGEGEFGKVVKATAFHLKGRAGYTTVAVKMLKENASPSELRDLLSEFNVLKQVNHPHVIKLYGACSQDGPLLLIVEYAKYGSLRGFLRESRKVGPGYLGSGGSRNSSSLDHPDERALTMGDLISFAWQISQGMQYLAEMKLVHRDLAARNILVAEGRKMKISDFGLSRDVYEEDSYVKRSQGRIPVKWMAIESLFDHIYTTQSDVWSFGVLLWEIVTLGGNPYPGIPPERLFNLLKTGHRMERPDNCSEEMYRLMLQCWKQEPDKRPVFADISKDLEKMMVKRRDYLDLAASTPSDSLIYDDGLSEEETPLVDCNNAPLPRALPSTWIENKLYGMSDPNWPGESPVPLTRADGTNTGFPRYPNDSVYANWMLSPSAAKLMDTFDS

Row | Structure (SMILES) | IC50 (KDR (h)) | IC50 (Flt3 (D835Y) (h)) | activity at 1 µM (Flt3 (D835Y) (h)) | activity at 1 µM (Ab1 (h)) | IC50 (Ret (h)) | IC50 (EGFR (T790M, L858R) (h)) | IC50 [1] | IC50 [2] | IC50 [3] | IC50 (MM1S Human myeloma cells) | IC50 [4] | IC50 [5] | IC50 (U266 Human myeloma cells) | IC50 [6] | IC50 (Ab1 (h))
1 | Nc1cc2cc(c1)Nc1nccc(n1)-c1cccc(c1)COC/C=C/COC2 [XIII-1] | 50 nM | 9 nM | -1% | 11% | 123 nM | 19 nM |  |  |  |  |  |  |  |  | 
2 | C/C=C/C(=O)Nc1cc2cc(c1)Nc1nccc(n1)-c1cccc(c1)COC/C=C/COC2 [XVI-4] |  | 10 nM | -1% | 11% | 314 nM | 60 nM |  |  |  |  |  |  |  |  | 
3 | C=CC(=O)Nc1cc2cc(c1)Nc1nccc(n1)-c1cccc(c1)COC/C=C/COC2 [XVI-6] | 61 nM | 10 nM | -1% | 17% | 202 nM | 64 nM |  |  |  |  |  |  |  |  | 
4 | CN(C)C/C=C/C(=O)Nc1cc2cc(c1)Nc1nccc(n1)-c1cccc(c1)COC/C=C/COC2 [XVI-8] | 97 nM | 9 nM | -2% | 4% | 79 nM | 17 nM |  |  |  |  |  |  |  |  | 
5 | O=C(/C=C/C(=O)N1CCNCC1)Nc1cc2cc(c1)Nc1nccc(n1)-c1cccc(c1)COC/C=C/COC2 [XVI-11] | 189 nM | 6 nM | 1% | -1% |  |  |  |  |  |  |  |  |  |  | 34 nM
6 | CN(C)C/C=C/C(=O)Nc1cc2cc(c1)Nc1nccc(n1)-c1cccc(c1)COC/C=C/CN(C)C2 [XVI-26] | 329 nM | 17 nM | 0% | 32% | 594 nM | 164 nM |  |  |  |  |  |  |  |  | 
7 | C/C=C/C(=O)Nc1cc2cc(c1)Nc1nccc(n1)-c1cccc(c1)COC/C=C/CN(C)C2 [XVI-28] | 76 nM | 20 nM | 1% | 37% | 1980 nM | 300 nM |  |  |  |  |  |  |  |  | 
8 | C#CC(=O)Nc1cc2cc(c1)Nc1nccc(n1)-c1cccc(c1)COC/C=C/COC2 [XVII-1] |  | 7 nM | -1% | 1% | 110 nM | 39 nM |  |  |  |  |  |  |  |  | 

Now those with a lower IC50 (Flt3 (D835Y) (h)), led by results:

Row | IC50 (KDR (h)) | IC50 (Flt3 (D835Y) (h)) | activity at 1 µM (Flt3 (D835Y) (h)) | activity at 1 µM (Ab1 (h)) | IC50 (Ret (h)) | IC50 (EGFR (T790M, L858R) (h)) | IC50 [1] | IC50 [2] | IC50 [3] | IC50 (MM1S Human myeloma cells) | IC50 [4] | IC50 [5] | IC50 (U266 Human myeloma cells) | IC50 [6] | IC50 (Ab1 (h)) | Structure (SMILES)
9 | 17 nM | 3 nM | -1% | -1% | 66 nM | 10 nM | 133 nM | 573 nM | 463 nM | 92 nM | 689 nM | 470 nM | 614 nM | 110 nM |  | O=C(/C=C/CN1CCCC1)Nc1cc2cc(c1)Nc1nccc(n1)-c1cccc(c1)COC/C=C/COC2 [XVI-1]
10 | 21 nM | 5 nM | 1% | 8% | 145 nM | 21 nM | 1180 nM | 2760 nM | 2040 nM | 379 nM | 2480 nM | 2880 nM | 2700 nM | 495 nM |  | O=C(/C=C/CN1CCOCC1)Nc1cc2cc(c1)Nc1nccc(n1)-c1cccc(c1)COC/C=C/COC2 [XVI-3]
11 |  | 5 nM | 1% |  |  |  |  |  |  |  |  |  |  |  |  | O=C(O)/C=C/C(=O)Nc1cc2cc(c1)Nc1nccc(n1)-c1cccc(c1)COC/C=C/COC2 [XVI-9]
12 | 40 nM | 4 nM | 5% | 9% |  |  |  |  |  |  |  |  |  |  | 139 nM | O=C(/C=C/C(=O)N1CCOCC1)Nc1cc2cc(c1)Nc1nccc(n1)-c1cccc(c1)COC/C=C/COC2 [XVI-10]
13 |  | 3 nM | 7% |  |  |  |  |  |  |  |  |  |  |  |  | C1=C/COCc2cccc(c2)-c2ccnc(n2)Nc2cc(cc(OC/C=C/CN3CCCC3)c2)COC/1 [XVI-12]
